From article PMC5622171 (Nature Communications, 2017)

Legend:
Assay in all cases: KINOMEscan kinase profiling
Format in all cases: binding
ABL1-nonphosphorylated = target: T1, ABL1-nonphosphorylated (Homo sapiens, UniProt P00519); settings: read-out: %Inhibition by 10 μM SPA70
T1 construct: purchased DiscoverX (Ambit Biosciences) KINOMEscan
Method in brief: (§1)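 KINOMEscan profiling followed a published protocol. Kinases whose inhibition exceeded a set cut-off were then tested in a dilution series beginning at 30 µM.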

ACVRL1 = target: T2, ACVRL1 (Homo sapiens, UniProt P37023); settings: read-out: %Inhibition by 10 μM SPA70
T2 construct: purchased DiscoverX (Ambit Biosciences) KINOMEscan
Method in brief: as §1

ADCK4 = target: T3, ADCK4 (Homo sapiens, UniProt Q96D53); settings: read-out: %Inhibition by 10 μM SPA70
T3 construct: purchased DiscoverX (Ambit Biosciences) KINOMEscan
Method in brief: as §1

BLK = target: T4, BLK (Homo sapiens, UniProt P51451); settings: read-out: %Inhibition by 10 μM SPA70
T4 construct: purchased DiscoverX (Ambit Biosciences) KINOMEscan
Method in brief: as §1

BMX = target: T5, BMX (Homo sapiens, UniProt P51813); settings: read-out: %Inhibition by 10 μM SPA70
T5 construct: purchased DiscoverX (Ambit Biosciences) KINOMEscan
Method in brief: as §1

CDC2L1 = target: T6, CDC2L1 (Homo sapiens, UniProt P21127); settings: read-out: %Inhibition by 10 μM SPA70
T6 construct: purchased DiscoverX (Ambit Biosciences) KINOMEscan
Method in brief: as §1

CDK5 = target: T7, CDK5 (Homo sapiens, UniProt Q00535)
T7 construct: purchased DiscoverX (Ambit Biosciences) KINOMEscan
Method in brief: as §1

CIT = target: T8, CIT (Homo sapiens, UniProt O14578)
T8 construct: purchased DiscoverX (Ambit Biosciences) KINOMEscan
Method in brief: as §1

CSNK1G2 = target: T9, CSNK1G2 (Homo sapiens, UniProt P78368)
T9 construct: purchased DiscoverX (Ambit Biosciences) KINOMEscan
Method in brief: as §1

EPHA8 = target: T10, EPHA8 (Homo sapiens, UniProt P29322); settings: read-out: %Inhibition by 10 μM SPA70
T10 construct: purchased DiscoverX (Ambit Biosciences) KINOMEscan
Method in brief: as §1

ERK5 = target: T11, ERK5 (Homo sapiens, UniProt Q13164); settings: read-out: %Inhibition by 10 μM SPA70
T11 construct: purchased DiscoverX (Ambit Biosciences) KINOMEscan
Method in brief: as §1

FGFR3 = target: T12, FGFR3 (Homo sapiens, UniProt P22607); settings: read-out: %Inhibition by 10 μM SPA70
T12 construct: purchased DiscoverX (Ambit Biosciences) KINOMEscan
Method in brief: as §1

FGFR4 = target: T13, FGFR4 (Homo sapiens, UniProt P22455); settings: read-out: %Inhibition by 10 μM SPA70
T13 construct: purchased DiscoverX (Ambit Biosciences) KINOMEscan
Method in brief: as §1

ICK = target: T14, ICK (Homo sapiens, UniProt Q9UPZ9); settings: read-out: %Inhibition by 10 μM SPA70
T14 construct: purchased DiscoverX (Ambit Biosciences) KINOMEscan
Method in brief: as §1

IRAK4 = target: T15, IRAK4 (Homo sapiens, UniProt Q9NWZ3)
T15 construct: purchased DiscoverX (Ambit Biosciences) KINOMEscan
Method in brief: as §1

LTK = target: T16, LTK (Homo sapiens, UniProt P29376); settings: read-out: %Inhibition by 10 μM SPA70
T16 construct: purchased DiscoverX (Ambit Biosciences) KINOMEscan
Method in brief: as §1

MEK2 = target: T17, MEK2 (Homo sapiens, UniProt P36507); settings: read-out: %Inhibition by 10 μM SPA70
T17 construct: purchased DiscoverX (Ambit Biosciences) KINOMEscan
Method in brief: as §1

MKK7 = target: T18, MKK7 (Homo sapiens, UniProt O14733)
T18 construct: purchased DiscoverX (Ambit Biosciences) KINOMEscan
Method in brief: as §1

MST3 = target: T19, MST3 (Homo sapiens, UniProt Q9Y6E0)
T19 construct: purchased DiscoverX (Ambit Biosciences) KINOMEscan
Method in brief: as §1

MUSK = target: T20, MUSK (Homo sapiens, UniProt O15146); settings: read-out: %Inhibition by 10 μM SPA70
T20 construct: purchased DiscoverX (Ambit Biosciences) KINOMEscan
Method in brief: as §1

MYLK2 = target: T21, MYLK2 (Homo sapiens, UniProt Q9H1R3); settings: read-out: %Inhibition by 10 μM SPA70
T21 construct: purchased DiscoverX (Ambit Biosciences) KINOMEscan
Method in brief: as §1

NEK5 = target: T22, NEK5 (Homo sapiens, UniProt Q6P3R8); settings: read-out: %Inhibition by 10 μM SPA70
T22 construct: purchased DiscoverX (Ambit Biosciences) KINOMEscan
Method in brief: as §1

PAK6 = target: T23, PAK6 (Homo sapiens, UniProt Q9NQU5); settings: read-out: %Inhibition by 10 μM SPA70
T23 construct: purchased DiscoverX (Ambit Biosciences) KINOMEscan
Method in brief: as §1

PCTK3 = target: T24, PCTK3 (Homo sapiens, UniProt Q07002); settings: read-out: %Inhibition by 10 μM SPA70
T24 construct: purchased DiscoverX (Ambit Biosciences) KINOMEscan
Method in brief: as §1

PIK3CA = target: T25, PIK3CA (Homo sapiens, UniProt P42336); settings: read-out: %Inhibition by 10 μM SPA70
T25 construct: purchased DiscoverX (Ambit Biosciences) KINOMEscan
Method in brief: as §1

PIM1 = target: T26, PIM1 (Homo sapiens, UniProt P11309); settings: read-out: %Inhibition by 10 μM SPA70
T26 construct: purchased DiscoverX (Ambit Biosciences) KINOMEscan
Method in brief: as §1

PIM2 = target: T27, PIM2 (Homo sapiens, UniProt Q9P1W9); settings: read-out: %Inhibition by 10 μM SPA70
T27 construct: purchased DiscoverX (Ambit Biosciences) KINOMEscan
Method in brief: as §1

PRKCI = target: T28, PRKCI (Homo sapiens, UniProt P41743); settings: read-out: %Inhibition by 10 μM SPA70
T28 construct: purchased DiscoverX (Ambit Biosciences) KINOMEscan
Method in brief: as §1

PRKD3 = target: T29, PRKD3 (Homo sapiens, UniProt O94806); settings: read-out: %Inhibition by 10 μM SPA70
T29 construct: purchased DiscoverX (Ambit Biosciences) KINOMEscan
Method in brief: as §1

PRKG1 = target: T30, PRKG1 (Homo sapiens, UniProt Q13976); settings: read-out: %Inhibition by 10 μM SPA70
T30 construct: purchased DiscoverX (Ambit Biosciences) KINOMEscan
Method in brief: as §1

RET = target: T31, RET (Homo sapiens, UniProt P07949); settings: read-out: %Inhibition by 10 μM SPA70
T31 construct: purchased DiscoverX (Ambit Biosciences) KINOMEscan
Method in brief: as §1

ROCK2 = target: T32, ROCK2 (Homo sapiens, UniProt O75116); settings: read-out: %Inhibition by 10 μM SPA70
T32 construct: purchased DiscoverX (Ambit Biosciences) KINOMEscan
Method in brief: as §1

TAK1 = target: T33, TAK1 (Homo sapiens, UniProt O43318); settings: read-out: %Inhibition by 10 μM SPA70
T33 construct: purchased DiscoverX (Ambit Biosciences) KINOMEscan
Method in brief: as §1

TBK1 = target: T34, TBK1 (Homo sapiens, UniProt Q9UHD2); settings: read-out: %Inhibition by 10 μM SPA70
T34 construct: purchased DiscoverX (Ambit Biosciences) KINOMEscan
Method in brief: as §1

TNK1 = target: T35, TNK1 (Homo sapiens, UniProt Q13470); settings: read-out: %Inhibition by 10 μM SPA70
T35 construct: purchased DiscoverX (Ambit Biosciences) KINOMEscan
Method in brief: as §1

TXK = target: T36, TXK (Homo sapiens, UniProt P42681); settings: read-out: %Inhibition by 10 μM SPA70
T36 construct: purchased DiscoverX (Ambit Biosciences) KINOMEscan
Method in brief: as §1

ULK2 = target: T37, ULK2 (Homo sapiens, UniProt Q8IYT8); settings: read-out: %Inhibition by 10 μM SPA70
T37 construct: purchased DiscoverX (Ambit Biosciences) KINOMEscan
Method in brief: as §1

VRK2 = target: T38, VRK2 (Homo sapiens, UniProt Q86Y07); settings: read-out: %Inhibition by 10 μM SPA70
T38 construct: purchased DiscoverX (Ambit Biosciences) KINOMEscan
Method in brief: as §1

YANK1 = target: T39, YANK1 (Homo sapiens, UniProt Q8WU08); settings: read-out: %Inhibition by 10 μM SPA70
T39 construct: purchased DiscoverX (Ambit Biosciences) KINOMEscan
Method in brief: as §1

YANK3 = target: T40, YANK3 (Homo sapiens, UniProt Q86UX6); settings: read-out: %Inhibition by 10 μM SPA70
T40 construct: purchased DiscoverX (Ambit Biosciences) KINOMEscan
Method in brief: as §1

ZAK = target: T41, ZAK (Homo sapiens, UniProt Q9NYL2); settings: read-out: %Inhibition by 10 μM SPA70
T41 construct: purchased DiscoverX (Ambit Biosciences) KINOMEscan
Method in brief: as §1

p38-alpha = target: T42, p38-alpha (Homo sapiens, UniProt Q16539)
T42 construct: purchased DiscoverX (Ambit Biosciences) KINOMEscan
Method in brief: as §1

p38-beta = target: T43, p38-beta (Homo sapiens, UniProt Q15759); settings: read-out: %Inhibition by 10 μM SPA70
T43 construct: purchased DiscoverX (Ambit Biosciences) KINOMEscan
Method in brief: as §1

T7 sequence (Q00535 whole entry): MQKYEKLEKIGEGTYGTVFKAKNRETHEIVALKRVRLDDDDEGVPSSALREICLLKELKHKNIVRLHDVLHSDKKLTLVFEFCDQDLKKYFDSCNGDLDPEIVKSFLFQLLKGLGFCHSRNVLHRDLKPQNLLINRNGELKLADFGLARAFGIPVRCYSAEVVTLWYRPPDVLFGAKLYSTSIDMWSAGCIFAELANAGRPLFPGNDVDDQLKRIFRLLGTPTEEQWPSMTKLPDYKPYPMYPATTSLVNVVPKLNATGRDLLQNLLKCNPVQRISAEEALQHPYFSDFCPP
T37 sequence (Q8IYT8 whole entry): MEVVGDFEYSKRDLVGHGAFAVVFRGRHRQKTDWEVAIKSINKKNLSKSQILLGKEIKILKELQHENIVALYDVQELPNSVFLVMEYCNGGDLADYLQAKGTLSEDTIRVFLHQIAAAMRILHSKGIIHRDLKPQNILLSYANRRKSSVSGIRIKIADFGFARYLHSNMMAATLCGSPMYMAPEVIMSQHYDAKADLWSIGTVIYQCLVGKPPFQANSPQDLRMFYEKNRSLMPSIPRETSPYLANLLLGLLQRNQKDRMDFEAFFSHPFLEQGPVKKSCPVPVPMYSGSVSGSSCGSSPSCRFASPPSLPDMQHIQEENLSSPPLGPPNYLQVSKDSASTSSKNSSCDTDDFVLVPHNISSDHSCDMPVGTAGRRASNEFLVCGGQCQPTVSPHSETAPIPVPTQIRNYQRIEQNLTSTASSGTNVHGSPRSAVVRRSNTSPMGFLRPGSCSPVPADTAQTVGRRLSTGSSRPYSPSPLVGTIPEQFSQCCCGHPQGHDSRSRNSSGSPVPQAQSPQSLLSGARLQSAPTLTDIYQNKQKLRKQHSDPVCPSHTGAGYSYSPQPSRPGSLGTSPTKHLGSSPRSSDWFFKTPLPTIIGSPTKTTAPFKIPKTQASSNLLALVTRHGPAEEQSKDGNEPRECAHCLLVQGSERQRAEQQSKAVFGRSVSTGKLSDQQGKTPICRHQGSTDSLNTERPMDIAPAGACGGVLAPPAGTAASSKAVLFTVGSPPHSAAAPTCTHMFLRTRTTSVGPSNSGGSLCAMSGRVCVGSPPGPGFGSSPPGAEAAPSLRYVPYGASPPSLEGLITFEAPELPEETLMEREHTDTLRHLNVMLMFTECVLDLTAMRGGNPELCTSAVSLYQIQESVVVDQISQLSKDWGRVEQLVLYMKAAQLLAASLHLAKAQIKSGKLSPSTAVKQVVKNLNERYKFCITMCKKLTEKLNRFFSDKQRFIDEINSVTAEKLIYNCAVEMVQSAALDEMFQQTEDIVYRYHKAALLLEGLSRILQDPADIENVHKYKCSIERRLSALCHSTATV
T26 sequence (P11309 whole entry): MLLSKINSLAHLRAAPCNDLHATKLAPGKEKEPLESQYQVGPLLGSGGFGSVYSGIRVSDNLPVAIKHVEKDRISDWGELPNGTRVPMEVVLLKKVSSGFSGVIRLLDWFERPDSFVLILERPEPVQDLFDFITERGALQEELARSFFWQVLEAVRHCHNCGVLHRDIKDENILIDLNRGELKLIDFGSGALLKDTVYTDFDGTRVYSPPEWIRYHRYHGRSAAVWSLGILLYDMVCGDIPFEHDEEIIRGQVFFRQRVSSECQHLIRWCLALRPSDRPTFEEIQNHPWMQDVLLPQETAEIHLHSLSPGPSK
T36 sequence (P42681 whole entry): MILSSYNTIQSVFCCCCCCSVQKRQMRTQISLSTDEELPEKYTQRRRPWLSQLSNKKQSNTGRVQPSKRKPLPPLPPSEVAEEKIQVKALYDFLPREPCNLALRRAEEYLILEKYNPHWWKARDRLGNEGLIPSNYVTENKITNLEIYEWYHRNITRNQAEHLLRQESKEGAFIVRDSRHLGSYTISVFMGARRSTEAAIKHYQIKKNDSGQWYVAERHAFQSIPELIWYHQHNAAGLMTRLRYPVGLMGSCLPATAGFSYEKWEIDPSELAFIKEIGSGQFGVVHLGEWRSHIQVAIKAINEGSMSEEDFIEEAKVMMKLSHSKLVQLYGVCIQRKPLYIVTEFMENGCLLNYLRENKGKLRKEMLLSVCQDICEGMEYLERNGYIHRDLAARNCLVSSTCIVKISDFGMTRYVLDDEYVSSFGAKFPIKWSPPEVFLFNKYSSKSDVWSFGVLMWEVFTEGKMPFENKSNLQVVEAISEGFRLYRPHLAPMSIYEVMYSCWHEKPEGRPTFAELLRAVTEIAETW
T2 sequence (P37023 22-503): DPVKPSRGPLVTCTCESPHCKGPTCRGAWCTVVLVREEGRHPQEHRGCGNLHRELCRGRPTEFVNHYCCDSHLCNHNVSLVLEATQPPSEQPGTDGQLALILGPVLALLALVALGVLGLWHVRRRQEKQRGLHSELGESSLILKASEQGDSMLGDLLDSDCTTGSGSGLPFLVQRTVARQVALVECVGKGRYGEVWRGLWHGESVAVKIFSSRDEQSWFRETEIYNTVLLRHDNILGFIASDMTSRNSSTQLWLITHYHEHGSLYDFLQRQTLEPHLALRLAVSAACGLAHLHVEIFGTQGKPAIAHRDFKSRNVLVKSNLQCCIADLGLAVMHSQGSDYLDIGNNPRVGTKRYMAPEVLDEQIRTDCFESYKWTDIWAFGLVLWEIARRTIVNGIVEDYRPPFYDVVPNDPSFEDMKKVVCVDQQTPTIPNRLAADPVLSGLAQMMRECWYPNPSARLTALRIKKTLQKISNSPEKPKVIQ
T3 sequence (Q96D53 whole entry): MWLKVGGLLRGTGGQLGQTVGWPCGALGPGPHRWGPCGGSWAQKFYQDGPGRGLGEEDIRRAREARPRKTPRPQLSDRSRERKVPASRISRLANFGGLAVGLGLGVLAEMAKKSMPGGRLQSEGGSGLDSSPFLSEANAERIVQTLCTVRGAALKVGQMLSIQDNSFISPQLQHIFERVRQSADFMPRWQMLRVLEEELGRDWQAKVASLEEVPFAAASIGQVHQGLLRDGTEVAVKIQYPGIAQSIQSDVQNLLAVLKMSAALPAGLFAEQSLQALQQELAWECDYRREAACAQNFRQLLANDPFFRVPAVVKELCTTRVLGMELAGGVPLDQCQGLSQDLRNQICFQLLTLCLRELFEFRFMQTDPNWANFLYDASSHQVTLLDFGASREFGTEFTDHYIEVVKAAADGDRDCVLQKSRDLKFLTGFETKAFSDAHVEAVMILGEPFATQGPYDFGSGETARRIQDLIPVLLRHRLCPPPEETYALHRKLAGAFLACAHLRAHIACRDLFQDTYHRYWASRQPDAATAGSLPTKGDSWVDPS
T40 sequence (Q86UX6 whole entry): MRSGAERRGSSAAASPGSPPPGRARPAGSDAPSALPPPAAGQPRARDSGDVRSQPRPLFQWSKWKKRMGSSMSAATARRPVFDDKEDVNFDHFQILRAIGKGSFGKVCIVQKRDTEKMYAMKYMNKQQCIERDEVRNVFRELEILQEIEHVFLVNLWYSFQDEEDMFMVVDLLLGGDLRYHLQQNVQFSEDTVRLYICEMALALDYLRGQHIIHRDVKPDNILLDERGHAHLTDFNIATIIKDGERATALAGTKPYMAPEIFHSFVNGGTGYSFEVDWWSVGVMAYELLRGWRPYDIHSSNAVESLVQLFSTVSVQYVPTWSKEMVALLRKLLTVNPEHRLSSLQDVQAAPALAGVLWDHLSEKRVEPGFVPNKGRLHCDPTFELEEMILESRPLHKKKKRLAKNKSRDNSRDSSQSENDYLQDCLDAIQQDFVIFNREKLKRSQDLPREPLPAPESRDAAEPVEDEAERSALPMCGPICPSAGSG
T38 sequence (Q86Y07 whole entry): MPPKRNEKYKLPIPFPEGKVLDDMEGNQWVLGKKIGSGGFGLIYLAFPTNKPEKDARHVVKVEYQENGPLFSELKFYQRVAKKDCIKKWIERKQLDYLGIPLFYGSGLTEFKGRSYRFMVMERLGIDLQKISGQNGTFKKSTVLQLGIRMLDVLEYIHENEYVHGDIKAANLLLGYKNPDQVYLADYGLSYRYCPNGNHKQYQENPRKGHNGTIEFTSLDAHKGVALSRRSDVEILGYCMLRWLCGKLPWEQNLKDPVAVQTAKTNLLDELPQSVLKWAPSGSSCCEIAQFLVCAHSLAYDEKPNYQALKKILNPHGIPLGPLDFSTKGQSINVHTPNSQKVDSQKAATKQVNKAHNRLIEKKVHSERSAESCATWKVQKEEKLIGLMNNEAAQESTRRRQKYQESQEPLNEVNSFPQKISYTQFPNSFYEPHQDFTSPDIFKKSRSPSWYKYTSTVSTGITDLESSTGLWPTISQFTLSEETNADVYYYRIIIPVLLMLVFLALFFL
T11 sequence (Q13164 whole entry): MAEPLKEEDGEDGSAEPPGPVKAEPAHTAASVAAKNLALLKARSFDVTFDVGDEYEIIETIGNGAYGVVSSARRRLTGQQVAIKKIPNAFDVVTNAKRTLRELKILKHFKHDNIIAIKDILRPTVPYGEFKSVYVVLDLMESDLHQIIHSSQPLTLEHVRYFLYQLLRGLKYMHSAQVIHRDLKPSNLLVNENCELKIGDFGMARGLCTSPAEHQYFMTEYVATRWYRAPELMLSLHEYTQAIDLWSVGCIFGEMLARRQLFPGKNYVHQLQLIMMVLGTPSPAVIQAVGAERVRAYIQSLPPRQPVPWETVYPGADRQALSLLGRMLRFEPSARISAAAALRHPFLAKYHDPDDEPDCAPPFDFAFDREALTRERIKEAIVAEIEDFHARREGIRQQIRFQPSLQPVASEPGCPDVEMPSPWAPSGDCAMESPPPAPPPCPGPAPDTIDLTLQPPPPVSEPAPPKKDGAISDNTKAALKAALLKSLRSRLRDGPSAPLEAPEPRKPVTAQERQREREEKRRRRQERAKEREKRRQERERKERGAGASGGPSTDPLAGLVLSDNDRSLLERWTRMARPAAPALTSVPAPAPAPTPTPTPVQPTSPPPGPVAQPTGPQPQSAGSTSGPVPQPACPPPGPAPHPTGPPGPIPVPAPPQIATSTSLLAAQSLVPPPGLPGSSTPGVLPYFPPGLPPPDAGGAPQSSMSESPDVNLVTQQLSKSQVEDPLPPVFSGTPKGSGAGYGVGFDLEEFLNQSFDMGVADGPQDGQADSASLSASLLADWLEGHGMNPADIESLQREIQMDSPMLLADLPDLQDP

Compound: COc1ccc(OC)c(-n2nnc(S(=O)(=O)c3ccc(C(C)(C)C)cc3)c2C)c1 [SPA70]
- inhibition at 10 µM (ABL1-nonphosphorylated): 0%
- inhibition at 10 µM (ACVRL1): 6%
- inhibition at 10 µM (ADCK4): 16%
- inhibition at 10 µM (BLK): 11%
- inhibition at 10 µM (BMX): 0%
- inhibition at 10 µM (CDC2L1): 0%
- %Inhibition by 10 μM SPA70 (CDK5): not inhibited
- inhibition at 10 µM (CDK5; read-out: %Inhibition by 10 μM SPA70): 0%
- %Inhibition by 10 μM SPA70 (CIT): 12%
- %Inhibition by 10 μM SPA70 (CSNK1G2): 0%
- inhibition at 10 µM (EPHA8): 13%
- inhibition at 10 µM (ERK5): 0%
- inhibition at 10 µM (FGFR3): 0%
- inhibition at 10 µM (FGFR4): 5%
- inhibition at 10 µM (ICK): 0%
- %Inhibition by 10 μM SPA70 (IRAK4): 0%
- inhibition at 10 µM (LTK): 6%
- inhibition at 10 µM (MEK2): 4%
- %Inhibition by 10 μM SPA70 (MKK7): 0%
- %Inhibition by 10 μM SPA70 (MST3): 0%
- inhibition at 10 µM (MUSK): 0%
- inhibition at 10 µM (MYLK2): 0%
- inhibition at 10 µM (NEK5): 0%
- inhibition at 10 µM (PAK6): 4%
- inhibition at 10 µM (PCTK3): 9%
- inhibition at 10 µM (PIK3CA): 0%
- inhibition at 10 µM (PIM1): 0%
- inhibition at 10 µM (PIM2): 0%
- inhibition at 10 µM (PRKCI): 0%
- inhibition at 10 µM (PRKD3): 0%
- inhibition at 10 µM (PRKG1): 0%
- inhibition at 10 µM (RET): 0%
- inhibition at 10 µM (ROCK2): 13%
- inhibition at 10 µM (TAK1): 0%
- inhibition at 10 µM (TBK1): 0%
- inhibition at 10 µM (TNK1): 0%
- inhibition at 10 µM (TXK): 0%
- inhibition at 10 µM (ULK2): 0%
- inhibition at 10 µM (VRK2): 0%
- inhibition at 10 µM (YANK1): 0%
- inhibition at 10 µM (YANK3): 0%
- inhibition at 10 µM (ZAK): 0%
- %Inhibition by 10 μM SPA70 (p38-alpha): 0%
- inhibition at 10 µM (p38-beta): 0%
